Patent US7964565B2, “Method of inhibiting inflammation in a mammal by administering Bcl protein” (University of Washington Center for Commercialization, a …, priority 2004, dated 2011)

B1: rA1: human A1 minus 25 amino acids at the carboxy terminal and addition of 6 histidine on the remaining protein (protein, listed as Homo sapiens)
chain: MTDCEFGYIYRLAQDYLQCVLQIPQPGSGPSKTSRVLQNVAFSVQKEVEKNLKSCLDNVNVVSVDTARTLFNQVMEKEFEDGIINWGRIVTIFAFEGILIKKLLRQQIAPDVDTYKEISYFVAEFIMNNTGEWIRQNGGWENGFVKKFEPKSHHHHHH

Key:
[1] = tested on: C57BL/6 mice, hind-limb skeletal muscle ischemia-reperfusion injury; assay: Hind-limb tourniquet ischemia-reperfusion, plasma creatine kinase; assay type: in vivo, mouse; conditions: tourniquet 90 min, reperfusion 3 hours
Description: Skeletal muscle was made ischemic by applying a tourniquet to the hind-limbs of C57BL/6 mice for 90 minutes, then removing the tourniquet and allowing reperfusion for an additional 3 hours. Mice were treated with active peptide 1 (SEQ ID NO:17) or peptide 2 (SEQ ID NO:18) or peptide 3 (SEQ ID NO:19), or with the scrambled (control) peptide (SEQ ID NO:20). Peptide-1 (SEQ ID NO:17) is from the BH4 region of Bcl-2. Peptide-2 (SEQ ID NO:18) is from the first alpha helix of A1. Peptide-3 (SEQ ID NO:19) is from the BH4 region of Bcl-XL. The amino acid sequences of peptide 1 (SEQ ID NO:17), peptide 2 (SEQ ID NO:18), peptide 3 (SEQ ID NO:19), and the scrambled (control) peptide (SEQ ID NO:20) are set forth in Table 1.
At the end of the 3 hours of reperfusion the mice were killed, and blood was taken for determination of plasma creatine kinase (CK) concentration. The CK concentration was used as an indicator of muscle injury. Elevated levels of CK indicate higher levels of muscle injury. […] The CK concentration for peptide 1 (SEQ ID NO:17) treated mice was 19,020+/−5481 IU/L (n=12) compared with control peptide (SEQ ID NO:20) where CK concentration was 60,530+/−5759 IU/L (n=12). The CK concentration for peptide 2 (SEQ ID NO:18) treated mice was 33,860+/−5997 IU/L (n=11) compared with control peptide (SEQ ID NO:20) where CK concentration was 69,430+/−11,170 IU/L (n=12). The CK concentration for peptide 3 (SEQ ID NO:19) treated mice was 49,500+/−3,901 IU/L (n=5) compared with control peptide (SEQ ID NO:20) where CK concentration was 80,880+/−11,430 IU/L (n=6).

[2] = tested on: C57BL/6 mice, hind limb skeletal muscle ischemia-reperfusion injury; assay: Hind limb ischemia-reperfusion by aortic cross-clamp, plasma creatine kinase; assay type: in vivo; conditions: protein injected i.p. the day before 90 min hind limb ischemia and 180 min reperfusion; 12 mice per group; rBcl-2 1 μg per mouse vs combined rUbiquitin/vehicle; rA1 vs rUbiquitin
Description: Mouse skeletal muscle was made ischemic by cross-clamping the aorta distal to the renal artery for 90 minutes, then the clamp was removed and hind limb reperfusion continued for 3 hours. At the end of reperfusion (3 hours after clamp removal) the mice were killed, and the concentration of plasma creatine kinase (CK) was measured and used as an indicator of injury (creatine kinase concentration increases as a result of skeletal muscle injury).
Blood from EμT-Bcl-2 mice and their littermate control mice was drawn into heparin and plasma was extracted by centrifugation. One ml of plasma from EμT-Bcl-2 mice, or one ml of plasma from littermate control mice, was injected into the peritoneum of C57BL/6 mice the day before the mice were subjected to 90 minutes of ischemia and 3 hours of reperfusion as described in Example 1 herein. Blood was drawn from the mice and plasma CK concentration was determined at the end of reperfusion.
Control Jaws II cells expressed only EGFP. […]
Medium from cell cultures of hBcl-2-Jaws II cells and EGFP-Jaws II cells was harvested 24 hours after the start of incubation and concentrated approximately 10-fold using centrifugal filters with a molecular size cut-off of approximately 3 kD. […] Plasma was extracted from the mice after ischemia-reperfusion, and plasma CK concentration was determined. […]

[3] = experiment with peptide 2, n=11 peptide, n=12 control

Molecule	plasma CK concentration ([1]; experiment with peptide 1, n=12 per group)	plasma CK concentration [1, 3]	plasma CK concentration ([1]; experiment with peptide 3, n=5 peptide, n=6 control)	plasma creatine kinase levels vs control [2]
control peptide: scrambled (control) peptide; TWHMYGNQRDYIGDRSKIVYKLEYE (SEQ ID NO:20)	60,530+/−5759 IU/L	69,430+/−11,170 IU/L	80,880+/−11,430 IU/L	
peptide 2: from the first alpha helix of A1; FGYIYRLAQDYLQCVLQIPZPGSGP (SEQ ID NO:18)		33,860+/−5997 IU/L		
B1				significantly (p<0.05) lower
